System: HeLa cells
Assay: Proliferation assay, crystal violet staining
Conditions: Homo sapiens, 96 h, read-out: Inhibition of HeLa cell proliferation, HeLa cells, 4 days incubation

Row | IC50 | Compound
1 | 92 nM | Cc1ccnc(F)c1-c1cc(N2CCOC[C@H]2C)nc2c(-c3ccn[nH]3)nccc12 [Example 90, 4-(2-fluoro-4-methylpyridin-3-yl)-2-[(3R)-3-methylmorpholin-4-yl]-8-(1H-pyrazol-5-yl)-1,7-naphthyridine]
2 | 108 nM | C[C@@H]1COCCN1c1cc(-c2cccn2C)c2ccnc(-c3ccn[nH]3)c2n1 [Example 91, 2-[(3R)-3-methylmorpholin-4-yl]-4-(1-methyl-1H-pyrrol-2-yl)-8-(1H-pyrazol-5-yl)-1,7-naphthyridine]
3 | 117 nM | Cc1cc(-c2cc(N3CCOC[C@H]3C)nc3c(-c4ccn[nH]4)nccc23)cnc1F [Example 92, 4-(6-fluoro-5-methylpyridin-3-yl)-2-[(3R)-3-methylmorpholin-4-yl]-8-(1H-pyrazol-5-yl)-1,7-naphthyridine]
4 | 179 nM | Cc1ccc(-c2cc(N3CCOC[C@H]3C)nc3c(-c4ccn[nH]4)nccc23)c(F)n1 [Example 93, 4-(2-fluoro-6-methylpyridin-3-yl)-2-[(3R)-3-methylmorpholin-4-yl]-8-(1H-pyrazol-5-yl)-1,7-naphthyridine]
5 | 268 nM | C[C@@H]1COCCN1c1cc(-c2ccc(F)nc2)c2ccnc(-c3ccn[nH]3)c2n1 [Example 94, 4-(6-fluoropyridin-3-yl)-2-[(3R)-3-methylmorpholin-4-yl]-8-(1H-pyrazol-5-yl)-1,7-naphthyridine]
6 | 211 nM | COc1ccc(-c2cc(N3CCOC[C@H]3C)nc3c(-c4ccn[nH]4)nccc23)cn1 [Example 95, 4-(6-methoxypyridin-3-yl)-2-[(3R)-3-methylmorpholin-4-yl]-8-(1H-pyrazol-5-yl)-1,7-naphthyridine]
7 | 169 nM | COc1ncc(-c2cc(N3CCOC[C@H]3C)nc3c(-c4ccn[nH]4)nccc23)cc1C [Example 96, 4-(6-methoxy-5-methylpyridin-3-yl)-2-[(3R)-3-methylmorpholin-4-yl]-8-(1H-pyrazol-5-yl)-1,7-naphthyridine]
8 | 252 nM | Cc1nc(F)ccc1-c1cc(N2CCOC[C@H]2C)nc2c(-c3ccn[nH]3)nccc12 [Example 97, 4-(6-fluoro-2-methylpyridin-3-yl)-2-[(3R)-3-methylmorpholin-4-yl]-8-(1H-pyrazol-5-yl)-1,7-naphthyridine]
9 | 440 nM | C[C@@H]1COCCN1c1cc(-c2cc(C(F)(F)F)nn2C)c2ccnc(-c3ccn[nH]3)c2n1 [Example 98, 2-[(3R)-3-methylmorpholin-4-yl]-4-[1-methyl-3-(trifluoromethyl)-1H-pyrazol-5-yl]-8-(1H-pyrazol-5-yl)-1,7-naphthyridine]
10 | 400 nM | Cc1ccsc1-c1cc(N2CCOC[C@H]2C)nc2c(-c3ccn[nH]3)nccc12 [Example 99, 2-[(3R)-3-methylmorpholin-4-yl]-4-(3-methyl-2-thienyl)-8-(1H-pyrazol-5-yl)-1,7-naphthyridine]
11 | 950 nM | Cc1ccc(-c2cc(N3CCOC[C@H]3C)nc3c(-c4ccn[nH]4)nccc23)s1 [Example 100, 2-[(3R)-3-methylmorpholin-4-yl]-4-(5-methyl-2-thienyl)-8-(1H-pyrazol-5-yl)-1,7-naphthyridine]
12 | 341 nM | Cc1cscc1-c1cc(N2CCOC[C@H]2C)nc2c(-c3ccn[nH]3)nccc12 [Example 101, 2-[(3R)-3-methylmorpholin-4-yl]-4-(4-methyl-3-thienyl)-8-(1H-pyrazol-5-yl)-1,7-naphthyridine]
13 | 604 nM | C[C@@H]1COCCN1c1cc(-c2sccc2Cl)c2ccnc(-c3ccn[nH]3)c2n1 [Example 102, 4-(3-chloro-2-thienyl)-2-[(3R)-3-methylmorpholin-4-yl]-8-(1H-pyrazol-5-yl)-1,7-naphthyridine]
14 | 374 nM | Cc1sccc1-c1cc(N2CCOC[C@H]2C)nc2c(-c3ccn[nH]3)nccc12 [Example 103, 2-[(3R)-3-methylmorpholin-4-yl]-4-(2-methyl-3-thienyl)-8-(1H-pyrazol-5-yl)-1,7-naphthyridine]
15 | 499 nM | C[C@@H]1COCCN1c1cc(-c2ccnc3[nH]ccc23)c2ccnc(-c3ccn[nH]3)c2n1 [Example 104, 2-[(3R)-3-methylmorpholin-4-yl]-8-(1H-pyrazol-5-yl)-4-(1H-pyrrolo[2,3-b]pyridin-4-yl)-1,7-naphthyridine]
16 | 1000 nM | Cc1noc(C)c1-c1cc(N2CCOC[C@H]2C)nc2c(-c3ccn[nH]3)nccc12 [Example 105, 4-(3,5-dimethyl-1,2-oxazol-4-yl)-2-[(3R)-3-methylmorpholin-4-yl]-8-(1H-pyrazol-5-yl)-1,7-naphthyridine]
17 | 434 nM | COc1nccc(-c2cc(N3CCOC[C@H]3C)nc3c(-c4ccn[nH]4)nccc23)c1Cl [Example 106, 4-(3-chloro-2-methoxypyridin-4-yl)-2-[(3R)-3-methylmorpholin-4-yl]-8-(1H-pyrazol-5-yl)-1,7-naphthyridine]
18 | 306 nM | C[C@@H]1COCCN1c1cc(C2CCOCC2)c2ccnc(-c3ccn[nH]3)c2n1 [Example 107, 2-[(3R)-3-methylmorpholin-4-yl]-8-(1H-pyrazol-5-yl)-4-(tetrahydro-2H-pyran-4-yl)-1,7-naphthyridine]

Row | IC50 | Compound
19 | 456 nM | C[C@@H]1COCCN1c1cc(C2=CCSCC2)c2ccnc(-c3ccn[nH]3)c2n1 [Example 108, 4-(3,6-dihydro-2H-thiopyran-4-yl)-2-[(3R)-3-methylmorpholin-4-yl]-8-(1H-pyrazol-5-yl)-1,7-naphthyridine]
20 | 298 nM | CC1CCN(c2cc(N3CCOC[C@H]3C)nc3c(-c4ccn[nH]4)nccc23)CC1 [Example 109, 2-[(3R)-3-methylmorpholin-4-yl]-4-(4-methylpiperidin-1-yl)-8-(1H-pyrazol-5-yl)-1,7-naphthyridine]
21 | 206 nM | C[C@@H]1COCCN1c1cc(-c2ccnn2C(C)(C)C)c2ccnc(-c3ccn[nH]3)c2n1 [Example 110, 4-(1-tert-butyl-1H-pyrazol-5-yl)-2-[(3R)-3-methylmorpholin-4-yl]-8-(1H-pyrazol-5-yl)-1,7-naphthyridine]
22 | 99.5 nM | Cc1cc(-c2cc(N3CCOC[C@H]3C)nc3c(-c4ccn[nH]4)nccc23)on1 [Example 112, 2-[(3R)-3-methylmorpholin-4-yl]-4-(3-methyl-1,2-oxazol-5-yl)-8-(1H-pyrazol-5-yl)-1,7-naphthyridine]
23 | 122 nM | CCn1nc(C)cc1-c1cc(N2CCOC[C@H]2C)nc2c(-c3ccn[nH]3)nccc12 [Example 113, 4-(1-ethyl-3-methyl-1H-pyrazol-5-yl)-2-[(3R)-3-methylmorpholin-4-yl]-8-(1H-pyrazol-5-yl)-1,7-naphthyridine]
24 | 177 nM | Cc1cnn(C)c1-c1cc(N2CCOC[C@H]2C)nc2c(-c3ccn[nH]3)nccc12 [Example 114, 4-(1,4-dimethyl-1H-pyrazol-5-yl)-2-[(3R)-3-methylmorpholin-4-yl]-8-(1H-pyrazol-5-yl)-1,7-naphthyridine]
25 | 199 nM | CSc1ccc(-c2cc(N3CCOC[C@H]3C)nc3c(-c4ccn[nH]4)nccc23)c(C)n1 [Example 115, 4-[2-methyl-6-(methylsulfanyl)pyridin-3-yl]-2-[(3R)-3-methylmorpholin-4-yl]-8-(1H-pyrazol-5-yl)-1,7-naphthyridine]
26 | 284 nM | Cc1nc(S(C)(=N)=O)ccc1-c1cc(N2CCOC[C@H]2C)nc2c(-c3ccn[nH]3)nccc12 (stereo partly drawn) [Example 116, 4-[2-methyl-6-(S-methylsulfonimidoyl)pyridin-3-yl]-2-[(3R)-3-methylmorpholin-4-yl]-8-(1H-pyrazol-5-yl)-1,7-naphthyridine]
27 | 225 nM | CCCn1nccc1-c1cc(N2CCOC[C@H]2C)nc2c(-c3ccn[nH]3)nccc12 [Example 117, 2-[(3R)-3-methylmorpholin-4-yl]-4-(1-propyl-1H-pyrazol-5-yl)-8-(1H-pyrazol-5-yl)-1,7-naphthyridine]
28 | 171 nM | C[C@@H]1COCCN1c1cc(-c2cnc3n2CCC3)c2ccnc(-c3ccn[nH]3)c2n1 [Example 118, 4-(6,7-dihydro-5H-pyrrolo[1,2-a]imidazol-3-yl)-2-[(3R)-3-methylmorpholin-4-yl]-8-(1H-pyrazol-5-yl)-1,7-naphthyridine]
29 | 425 nM | CCn1nc(C(F)(F)F)cc1-c1cc(N2CCOC[C@H]2C)nc2c(-c3ccn[nH]3)nccc12 [Example 119, 4-[1-ethyl-3-(trifluoromethyl)-1H-pyrazol-5-yl]-2-[(3R)-3-methylmorpholin-4-yl]-8-(1H-pyrazol-5-yl)-1,7-naphthyridine]
30 | 354 nM | COC(=O)c1ccc(-c2cc(N3CCOC[C@H]3C)nc3c(-c4ccn[nH]4)nccc23)[nH]1 [Example 120, methyl 5-{2-[(3R)-3-methylmorpholin-4-yl]-8-(1H-pyrazol-5-yl)-1,7-naphthyridin-4-yl}-1H-pyrrole-2-carboxylate]
31 | 352 nM | C[C@@H]1COCCN1c1cc(-c2ccns2)c2ccnc(-c3ccn[nH]3)c2n1 [Example 121, 2-[(3R)-3-methylmorpholin-4-yl]-8-(1H-pyrazol-5-yl)-4-(1,2-thiazol-5-yl)-1,7-naphthyridine]
32 | 706 nM | C[C@@H]1COCCN1c1cc(-c2ccccc2N(C)C)c2ccnc(-c3ccn[nH]3)c2n1 [Example 122, N,N-dimethyl-2-{2-[(3R)-3-methylmorpholin-4-yl]-8-(1H-pyrazol-5-yl)-1,7-naphthyridin-4-yl}aniline]
33 | 431 nM | C[C@@H]1COCCN1c1cc(-c2ccc(F)cc2F)c2ccnc(-c3ccn[nH]3)c2n1 [Example 123, 4-(2,4-difluorophenyl)-2-[(3R)-3-methylmorpholin-4-yl]-8-(1H-pyrazol-5-yl)-1,7-naphthyridine]
34 | 156 nM | CC(C)n1nccc1-c1cc(N2CCOC[C@H]2C)nc2c(-c3ccn[nH]3)nccc12 [Example 124, 4-(1-isopropyl-1H-pyrazol-5-yl)-2-[(3R)-3-methylmorpholin-4-yl]-8-(1H-pyrazol-5-yl)-1,7-naphthyridine]
35 | 578 nM | CC(C)COP(C)(=O)c1cc(N2CCOC[C@H]2C)nc2c(-c3ccn[nH]3)nccc12 (stereo partly drawn) [Example 127, isobutyl methyl{2-[(3R)-3-methylmorpholin-4-yl]-8-(1H-pyrazol-5-yl)-1,7-naphthyridin-4-yl}phosphinate]
36 | 770 nM | C[C@@H]1COCCN1c1cc(C(C)(C)O)c2ccnc(-c3ccn[nH]3)c2n1 [Example 128, 2-{2-[(3R)-3-methylmorpholin-4-yl]-8-(1H-pyrazol-5-yl)-1,7-naphthyridin-4-yl}propan-2-ol]

Source: patent US10772893B2, “2-(morpholin-4-yl)-1,7-naphthyridines” (BAYER PHARMA AKTIENGESELLSCHAFT, priority 2014, dated 2020)
